{"source": "paper PMC9916685", "about": "“Discovery of Small Molecule COX-1 and Akt Inhibitors as Anti-NSCLC Agents Endowed with Anti-Inflammatory Action” (International Journal of Molecular Sciences, 2023)", "key": {"[1]": {"test_system": "A549 cells", "assay": "Annexin V-FITC/PI flow cytometry-based apoptosis detection", "details": "A549, 24 h; for percentage of A549 cells undergoing apoptosis (early and late): sum of early and late"}, "[2]": {"test_system": "A549 human lung adenocarcinoma cells", "assay": "MTT cytotoxicity assay, A549 cells", "format": "cell-based", "details": "mean ± SD", "protocol": "A549 human lung adenocarcinoma and L929 mouse fibroblast cell lines were obtained from American Type Culture Collection (ATCC) (Manassas, VA, USA). Both cell lines were cultured, and drug treatments were carried out as previously reported.\nMTT assay was conducted as previously explained in the literature with small modifications. Cisplatin was used as a positive control. The assay was performed in triplicate. IC50 data (µM) were expressed as mean ± SD."}, "[3]": {"test_system": "Akt", "assay": "Akt Colorimetric In-Cell ELISA in A549 cells", "format": "cell-based, human", "details": "24 h, mean ± SD, read-out: Akt inhibition IC50 in A549 cells", "protocol": "The assay was performed in triplicate. IC50 data (µM) were expressed as mean ± SD."}, "[4]": {"test_system": "COX-1", "details": "cited from earlier work"}, "[5]": {"test_system": "nitric oxide (NO)", "assay": "LPS-induced sepsis model, serum NO levels", "format": "in vivo, Sprague Dawley rats", "details": "rat serum, 24 h after LPS; 3b, 4a 10 mg/kg/day, indomethacin 5 mg/kg by gastric intubation six days; n = 8", "protocol": "(§1) Male albino Sprague Dawley rats (~250–300 g) were procured from the Medical and Surgical Experimental Animals Application and Research Center of Eskisehir Osmangazi University (ESOGU). In the animal house, the rats were housed in stainless steel cages under standard atmospheric conditions at 22 ± 1 °C and exposed to 12 h/12 h light/dark cycle. Food and water were given ad libitum. All experiments and protocols reported in this work were approved by ESOGU Animal Experiments Local Ethics Committee (10 December 2018/700).\n(§2) Compounds 3b, 4a, and indomethacin (Sigma-Aldrich, St. Louis, MO, USA) were dissolved in 5% dimethyl sulfoxide (DMSO) and then diluted. The final DMSO concentration in the solution was 0.5% (v/v). The agents were administered by gastric intubation.\n(§3) Rats were randomly divided into five groups (n = 8) as control group, LPS group, test groups (3b and 4a), and reference group. 0.5% DMSO was used as control solution for LPS group. Indomethacin (5 mg/kg) was used as a reference agent. Control group (Group I) was fed with basal rat chow throughout the experimental period. LPS group (Group II) was fed with basal rat chow for six days (only 0.5% DMSO was administered by gastric intubation) and LPS was injected intraperitoneally in 0.9% sodium chloride solution only once on the 7th day. Groups III, IV, and V were fed with basal rat chow and compound 3b (10 mg/kg/day), compound 4a (10 mg/kg/day), and indomethacin were administered, respectively, by gastric intubation for six days. Then, LPS was injected intraperitoneally in 0.9% sodium chloride solution only once on the 7th day for three groups as well. After 24 h of LPS injection, all rats were sacrificed by ketamine (80 mg/kg) ve xylazine (10 mg/kg) anesthesia via intraperitoneal route. Blood samples were collected via cardiac puncture in tubes containing gel for obtaining serum.\nNitrate and nitrite, which represent the best index of the entire NO production, are the stable end products of NO in vivo. Nitrate in serum was assayed by a slight modification of the Cd-reduction method as reported by Cortas and Wakid."}, "[6]": {"test_system": "myeloperoxidase (MPO)", "assay": "LPS-induced sepsis model, serum MPO levels", "format": "in vivo, Sprague Dawley rats", "details": "rat serum, 24 h after LPS 1 mg/kg i.p.; 3b, 4a 10 mg/kg/day, indomethacin 5 mg/kg by gastric intubation for six days; mean ± SD, n = 8", "protocol": "as §1, §2, §3\nSuzuki’s assay was performed with slight modifications. The rate of MPO-catalyzed oxidation of 3,3′,5,5′-tetramethylbenzidine (TMB) was followed by recording the absorbance increase at 655 nm for 5 min. Taking into account the linear phase of the reaction, the absorbance change was measured per minute. The enzyme activity was expressed as the amount of the enzyme producing one absorbance change per minute under assay conditions."}, "[7]": {"assay": "LPS-induced sepsis model, serum ALT and AST levels", "format": "in vivo, Sprague Dawley rats", "details": "rat serum, 24 h after LPS; 3b, 4a 10 mg/kg/day, indomethacin 5 mg/kg by gastric intubation six days; mean ± SD, n = 8", "protocol": "as §1, §2, §3\nSerum ALT and AST levels were determined using enzyme-based Roche Diagnostics kit in Roche Modular Systems analyzer by photometric assay based on the manufacturer’s instructions. The other serum samples were stored at −80 °C (Thermo Electron, Waltham, MA, USA) for subsequent analyses of MPO and NO levels."}}}
{"smiles": "N.N.[Cl][Pt][Cl]", "note": "[Cisplatin, reference compound]", "values": [{"measurement": "Early Apoptosis (%)", "setting": "[1]; compound at IC50", "value": 2.43, "unit": "%"}, {"measurement": "Late Apoptosis (%)", "setting": "[1]; compound at IC50", "value": 2.03, "unit": "%"}, {"measurement": "Necrosis (%)", "setting": "[1]; compound at IC50", "value": 2.34, "unit": "%"}, {"measurement": "Early Apoptosis (%)", "setting": "[1]; compound at IC50/2", "value": 3.69, "unit": "%"}, {"measurement": "Late Apoptosis (%)", "setting": "[1]; compound at IC50/2", "value": 2.88, "unit": "%"}, {"measurement": "Necrosis (%)", "setting": "[1]; compound at IC50/2", "value": 0.72, "unit": "%"}, {"measurement": "percentage of A549 cells undergoing apoptosis (early and late)", "setting": "[1]; compound at IC50/2", "value": 6.57, "unit": "%"}, {"measurement": "percentage of A549 cells undergoing apoptosis (early and late)", "setting": "[1]; compound at IC50", "value": 4.46, "unit": "%"}, {"measurement": "IC50", "setting": "[2]", "value": "22.7 ± 4.04", "unit": "µM"}, {"measurement": "IC50", "setting": "[3]", "value": "9.3 ± 2.55", "unit": "µM"}]}
{"smiles": "COc1ccc2[nH]cc(C=CC(=O)c3ccc(S(C)(=O)=O)cc3)c2c1", "note": "[3-(5-methoxy-1H-indol-3-yl)-1-(4-(methylsulfonyl)phenyl)prop-2-en-1-one]", "values": [{"measurement": "COX-1 IC50", "setting": "[4]", "value": 8.60, "unit": "µg/mL"}]}
{"smiles": "N#Cc1ccc(Oc2ccc(C=NNC(=S)Nc3ccc(S(=O)(=O)N4CCCCC4)cc3)cc2)cc1", "note": "[4-[4-(piperidin-1-ylsulfonyl)phenyl]-1-[4-(4-cyanophenoxy)benzylidene]thiosemicarbazide]", "values": [{"measurement": "IC50", "setting": "[4]", "value": 1.89, "unit": "µM"}]}
{"smiles": "COc1ccc2c(c1)c(CC(=O)O)c(C)n2C(=O)c1ccc(Cl)cc1", "note": "[Indomethacin, reference compound]", "values": [{"measurement": "NO level, 25% Percentile", "setting": "[5]", "value": 0.667, "unit": "µmol/L"}, {"measurement": "NO level, 75% Percentile", "setting": "[5]", "value": 3.123, "unit": "µmol/L"}, {"measurement": "NO level, Median", "setting": "[5]", "value": 1.281, "unit": "µmol/L"}, {"measurement": "MPO (U/L)", "setting": "[6]", "value": "1.06 ± 0.73", "unit": "U/L"}, {"measurement": "ALT (U/L)", "setting": "[7]", "value": "44.00 ± 14.64", "unit": "U/L"}, {"measurement": "AST (U/L)", "setting": "[7]", "value": "123.50 ± 32.14", "unit": "U/L"}]}
